Data on 43 molecules can be found in ChEMBL document CHEMBL1130765, “5-Aminomethylquinoxaline-2,3-diones, Part III: Arylamide derivatives as highly potent and selective glycine-site NMDA receptor antagonists” (Bioorg Med Chem Lett, 1998).

Experiment [1] addresses Glutamate receptor ionotropic, AMPA (Rattus norvegicus, UniProt P19490+P19491+P19492+P19493). Briefly: In vitro binding assay for the displacement of [3H]AMPA from AMPA receptor. The experiment is classed as protein-complex assay.
Experiment [2] deals with Glutamate receptor ionotropic, NMDA 1 (Rattus norvegicus, UniProt P35439). Briefly: In vitro binding assay for the displacement of [3H]MDL-105519 from the glycine-site of NMDA receptors. In general terms: In a radioligand displacement assay an active substance lowers the binding of a labelled ligand.

The IC50 is the concentration that gives 50% inhibition. Low readings indicate greater potency, high ones weaker potency. Take `O=C(NCc1cc(Br)cc2nc(O)c(O)nc12)c1cccnc1`: the values for the concentration for half-maximal inhibition (IC50) in experiment [1] and in experiment [2] were 4.3 µM and 0.28 µM, respectively.

`O=C(NCc1cc(Br)cc2nc(O)c(O)nc12)OCc1ccccc1`: the concentration for half-maximal inhibition (IC50) in experiment [1] is around 10 µM; in experiment [2] it was 0.11 µM.

Turning to `O=C(Cc1ccccc1)NCc1cc(P(=O)(O)O)cc2[nH]c(=O)c(=O)[nH]c12`, the IC50 in experiment [1] and in experiment [2] was above 10 µM throughout.

Take `O=C(NCc1cc(Br)cc2[nH]c(=O)c(=O)[nH]c12)C(=O)c1ccccc1`: the 50% inhibitory concentration (IC50) was above 10 µM in experiment [1] and 4 µM in experiment [2].

On to `COc1cc(C(=O)NCc2cc([N+](=O)[O-])cc3[nH]c(=O)c(=O)[nH]c23)cc(OC)c1OC`, for which the half-maximal inhibitory concentration (IC50) in experiment [1] was determined as 0.064 µM; in experiment [2], 0.2 µM.

For `CC(=O)OC(C(=O)NCc1cc(Br)cc2nc(O)c(O)nc12)c1ccccc1` (stereo unspecified), the results for the IC50 in experiment [1] and in experiment [2] were above 10 µM and 0.04 µM, respectively.

Turning to `Cc1ccsc1C(=O)NCc1cc(Br)cc2nc(O)c(O)nc12`, the 50% inhibitory concentration (IC50) is around 10 µM in experiment [1] and 0.02 µM in experiment [2].

Turning to `Cc1ccc(C(=O)NCc2cc(Br)cc3nc(O)c(O)nc23)cn1`, the values for the concentration for half-maximal inhibition (IC50) in experiment [1] and in experiment [2] were around 10 µM and 0.11 µM, respectively.

For the molecule `COc1cccc(CC(=O)NCc2cc(Br)cc3[nH]c(=O)c(=O)[nH]c23)c1`, the IC50 in experiment [1] is above 10 µM; in experiment [2] it was 0.03 µM.

As for `O=C(NCc1cc(Br)cc2nc(O)c(O)nc12)c1cc(C(F)(F)F)cc(C(F)(F)F)c1`, the concentration for half-maximal inhibition (IC50) in experiment [1] and in experiment [2] was above 10 µM throughout.

Turning to `O=C(NCc1cc(Br)cc2[nH]c(=O)c(=O)[nH]c12)C(O)c1ccccc1` (stereo unspecified), the concentration for half-maximal inhibition (IC50) in experiment [1] was around 10 µM; in experiment [2], 0.05 µM.

Consider `Cc1ccc(C(=O)NCc2cc(Br)cc3[nH]c(=O)c(=O)[nH]c23)s1`, for which the half-inhibitory concentration (IC50) turned out to be 1.7 µM in experiment [1] and 0.03 µM in experiment [2].

As for `O=C(NCc1cc(Br)cc2nc(O)c(O)nc12)c1ccccc1`, the half-maximal inhibitory concentration (IC50) came to 1.7 µM in experiment [1] and 0.06 µM in experiment [2].

For the molecule `O=C(Cc1ccccc1)NCc1cccc2[nH]c(=O)c(=O)[nH]c12`, the values for the IC50 in experiment [1] and in experiment [2] were above 10 µM and 0.09 µM, respectively.

Consider `COc1ccccc1NC(=O)NCc1cc([N+](=O)[O-])cc2nc(O)c(O)nc12`, for which the IC50 in experiment [1] worked out at 0.63 µM; in experiment [2], 0.03 µM.

Consider `O=C(Cc1ccc(Cl)cc1)NCc1cc(Br)cc2nc(O)c(O)nc12`, for which the concentration for half-maximal inhibition (IC50) in experiment [1] is above 10 µM; in experiment [2] it was 20 µM.

On to `NS(=O)(=O)c1ccc(C(=O)NCc2cc([N+](=O)[O-])cc3[nH]c(=O)c(=O)[nH]c23)cc1`, for which the half-maximal inhibitory concentration (IC50) is 0.2 µM in experiment [1] and 0.63 µM in experiment [2].

For the molecule `O=C(Cc1ccccc1Cl)NCc1cc(Br)cc2[nH]c(=O)c(=O)[nH]c12`, the IC50 in experiment [1] is above 10 µM; in experiment [2], 0.007 µM.

Consider `O=C(Cc1ccc2c(c1)OCO2)NCc1cc(Br)cc2[nH]c(=O)c(=O)[nH]c12`, for which the IC50 was above 10 µM in experiment [1] and 3.9 µM in experiment [2].

Regarding `Cn1cccc1C(=O)NCc1cc(Br)cc2[nH]c(=O)c(=O)[nH]c12`, the IC50 in experiment [1] was above 10 µM; in experiment [2], 0.02 µM.

For `O=C(NCc1cc(Br)cc2[nH]c(=O)c(=O)[nH]c12)c1ccco1`, the IC50 in experiment [1] amounted to 6.8 µM; in experiment [2], 0.04 µM.

In the case of `O=C(Cc1ccc([N+](=O)[O-])cc1)NCc1cc(Br)cc2nc(O)c(O)nc12`, the IC50 in experiment [1] is above 10 µM; in experiment [2] it was 1.2 µM.

As for `Cc1ncccc1C(=O)NCc1cc(Br)cc2nc(O)c(O)nc12`, the IC50 in experiment [1] is around 10 µM; in experiment [2] it was 1.8 µM.

With `O=C(NCc1cc([N+](=O)[O-])cc2[nH]c(=O)c(=O)[nH]c12)c1ccccc1O`, the results for the IC50 in experiment [1] and in experiment [2] were 0.15 µM and 0.04 µM, respectively.

`O=C(NCc1cc([N+](=O)[O-])cc2nc(O)c(O)nc12)Nc1ccccc1`: the IC50 in experiment [1] was 4.34 µM; in experiment [2], 0.9 µM.

Regarding `O=C(Cc1ccccc1)NCc1cc(Br)cc2[nH]c(=O)c(=O)[nH]c12`, the IC50 in experiment [1] is above 10 µM; in experiment [2], 0.01 µM.

On to `O=C(NCc1cc([N+](=O)[O-])cc2[nH]c(=O)c(=O)[nH]c12)c1cc(O)c(O)c(O)c1`, for which the results for the IC50 in experiment [1] and in experiment [2] were 0.13 µM and 0.15 µM, respectively.

As to `COc1ccc(NC(=O)NCc2cc([N+](=O)[O-])cc3[nH]c(=O)c(=O)[nH]c23)cc1`, the IC50 in experiment [1] was found to be 0.3 µM; in experiment [2], 0.03 µM.

With `Nc1ccccc1C(=O)NCc1cc([N+](=O)[O-])cc2[nH]c(=O)c(=O)[nH]c12`, the IC50 in experiment [1] was 0.3 µM; in experiment [2], 0.17 µM.

With `O=C(NCc1cc(Br)cc2[nH]c(=O)c(=O)[nH]c12)Oc1ccccc1`, the IC50 is above 10 µM in experiment [1] and 1.5 µM in experiment [2].

For `O=C(NCc1cc(Br)cc2nc(O)c(O)nc12)c1cccs1`, the IC50 in experiment [1] worked out at 1.6 µM; in experiment [2], 0.01 µM.

For the molecule `O=C(NCc1cc(Br)cc2nc(O)c(O)nc12)c1ccncc1`, the concentration for half-maximal inhibition (IC50) in experiment [1] is around 10 µM; in experiment [2], 0.25 µM.

For `O=C(NCc1cc(Br)cc2[nH]c(=O)c(=O)[nH]c12)c1ccsc1`, the results for the concentration for half-maximal inhibition (IC50) in experiment [1] and in experiment [2] were 2 µM and 0.01 µM, respectively.

As to `CC(C(=O)NCc1cc(Br)cc2nc(O)c(O)nc12)c1ccccc1` (stereo unspecified), the half-maximal inhibitory concentration (IC50) was around 10 µM in experiment [1] and 0.01 µM in experiment [2].

Regarding `COc1ccc(CC(=O)NCc2cc(Br)cc3[nH]c(=O)c(=O)[nH]c23)cc1OC`, the IC50 was above 10 µM in experiment [1] and 0.05 µM in experiment [2].

Regarding `O=C(Cc1cccc([N+](=O)[O-])c1)NCc1cc(Br)cc2[nH]c(=O)c(=O)[nH]c12`, the IC50 is above 10 µM in experiment [1] and 0.04 µM in experiment [2].

`O=C(Cc1ccccc1)NCc1cc([N+](=O)[O-])cc2[nH]c(=O)c(=O)[nH]c12`: the IC50 in experiment [1] was determined as 28.8 µM; in experiment [2] it was 0.04 µM.

`O=C(Cc1cccc(Cl)c1)NCc1cc(Br)cc2nc(O)c(O)nc12`: the IC50 in experiment [1] is above 10 µM; in experiment [2], 0.04 µM.

As for `O=C(Cc1ccsc1)NCc1cc(Br)cc2nc(O)c(O)nc12`, the IC50 in experiment [1] stood at 11.3 µM; in experiment [2], 0.01 µM.

As for `O=C(CCc1ccccc1)NCc1cc(Br)cc2nc(O)c(O)nc12`, the IC50 in experiment [1] was above 10 µM; in experiment [2] it was 0.86 µM.

Regarding `O=C(NCc1cc([N+](=O)[O-])cc2nc(O)c(O)nc12)Nc1ccc(OC(F)(F)F)cc1`, the IC50 in experiment [1] is 1.1 µM; in experiment [2] it was 0.35 µM.

With `O=C(Cc1ccccc1)NCc1cc(Cl)cc2nc(O)c(O)nc12`, the figures for the 50% inhibitory concentration (IC50) in experiment [1] and in experiment [2] were around 10 µM and 0.01 µM, respectively.

In the case of `O=C(Cc1ccccc1[N+](=O)[O-])NCc1cc(Br)cc2nc(O)c(O)nc12`, the 50% inhibitory concentration (IC50) in experiment [1] was above 10 µM; in experiment [2], 0.02 µM.
